The conditions of this data set: Crystal; for mass density: 298 K, 101.33 kPa, X-ray diffraction; for Normal melting temperature: DTA.

This note sets out measurements from the NIST ThermoML archive (doi:10.1016/j.tca.2019.178319).

± gives the expanded uncertainty stated by the source.

In the case of `[I][Bi]([I])[I]` [bismuth triiodide], the mass density (usually mass per unit of volume) was determined as 5770 ± 20 kg/m3 and the Normal melting temperature was 407 ± 4 °C.
As to `[Bi+3].[Bi+3].[Se-2].[Se-2].[Se-2]` [bismuth(III) selenide], the mass density is 7660 ± 30 kg/m3 and the Normal melting temperature was 707 ± 6 °C.
With `[Bi+3].[Bi+3].[S-2].[S-2].[S-2]` [bismuth(III) sulfide], the mass density stood at 6800 ± 20 kg/m3 and the Normal melting temperature turned out to be 777 ± 6 °C.
